Data as given in patent US10603325B2, “Methods of treating age-related symptoms in mammals and compositions therefor” (University of Maryland, priority 2014, dated 2020).
Entries after “also recorded” stand apart in the source; their conditions may differ.

Key:
HGPS cells [1] = experiment: Senescence: SA-β-gal assay and p16 expression analysis; assay type: cell-based, human; conditions: MB-treated vs mock-treated HGPS cells
Method: SA-β-gal activity assay was performed according to the manufacturer's protocol (#9860; Cell Signaling). Briefly, fibroblasts cells grown on six-well plate were fixed in 1× fixative solution containing 2% formaldehyde and […] for 10 minutes, and then stained overnight at 37° C. with the (3-galactosidase staining solution at pH 6.0 for 15 hours. Images were acquired by Zeiss AX10 microscope with a SPOT PURSUIT camera.

progerin in HGPS cells = experiment: Confocal microscopy of progerin distribution; assay type: cell-based, human; conditions: MB treated HGPS cells, anti-progerin antibody staining
[2] = system: normal and HGPS fibroblasts; experiment: ATP assay; assay type: cell-based, human; conditions: MB 100 nM, 5 weeks, vs mock
Method: (§1) (Upper panel). Normalized relative HP1α protein levels in each sample are shown in the lower graph.
(§2) To evaluate the effects of MB on mitochondria, ATP levels, mitochondrial superoxide (MitoSOX) and overall intracellular ROS (DCFDA) in Mock or MB-treated cells.
Intracellular ATP content was measured by using luminescence ATP detection System (ATPlite, PerkinElmer). Briefly, fibroblast cells were harvested with 0.05% trypsin-EDTA and counted. The same number of 2,500 cells from each fibroblast sample was seeded onto a 96-well black plate (triplicate). After the cells had been lysed with the lysis buffer for five minutes, the substrate solution was added and mixed for another five minutes to conduct the reaction for light generation. After dark adaption for 10 minutes, the luminescence intensity of each well was acquired at luminescence mode with SoftMax Pro software connecting to SpectraMax M5 Microplate Reader.

[3] = system: normal and HGPS fibroblasts; experiment: ROS assays by flow cytometry (MitoSOX, DCFDA); assay type: cell-based, human
Method: as §1, §2
To measure mitochondrial superoxide, MB or other antioxidant treated skin fibroblast cells cultured on 60-mm dishes were incubated with fresh complete medium containing 5 μM MitoSOXRed (Life Technologies) at 37° C. After 30 minutes, stained cells were harvested by trypsin digestion and rinsed twice with PBS. Single cell suspensions in 400 μl PBS were prepared for FACS analysis (FACS Canto II; BD). MitoSOX Red was excited by laser at 488 nm, and the data was collected at 582±21 nm. See results in FIG. 10.
To measure mitochondrial superoxide, cells grown on 60-mm dishes were incubated with fresh complete medium containing 5 μM MitoSOX Red (Life Technologies, M36008) at 37° C. After 30 minutes, stained cells were harvested by trypsin digestion and rinsed twice with PBS. Single cell suspensions in 400 μl PBS were prepared for FACS analysis (FACS Canto II; BD). […] Mitochondrial membrane potential (MMP, Life Technologies, M34152) and Annexin V-positive apoptotic cells (BD Pharmingen, 556547) were measured according to manufacturer's protocol. Flow cytometry was performed by FACS Cantoll (BD) and the data were analyzed by FlowJo Software.

[4] = system: mitochondria in normal and HGPS fibroblasts; experiment: TEM scoring of mitochondrial abnormalities; assay type: cell-based, human; conditions: MB 100 nM, 8 weeks
Method: as §1, §2
(§3) Passage-matched normal or HGPS skin fibroblasts were grown on 35-mm glass bottom dish until 80% confluence. Cells were prepared for transmission electron microscopic analysis following the protocol of McCord et al. Briefly, cells were fixed with 2.5% glutaraldehyde in 0.1 M sodium cacodylate (pH 7.4) for one hour at room temperature. Specimens were washed three times with 0.1 M sodium cacodylate and post-fixed for one hour with 1% osmium tetroxide in 0.1 M sodium cacodylate at room temperature. After washing three times with distilled water, specimens were incubated with 2% aqueous uranyl acetate at room temperature. The specimens were dehydrated in ethanol gradients: 35% for 10min, 50% for 10min, 70% for 10min, for 95% for 10 min, and 100% for 3×5 min. […] Mitochondrial morphological quantification was conducted blindly by a trained TEM expert. Two observers scored over 360 mitochondria from 10 randomly selected cells in each group blindly. […] Over 300 mitochondria in either normal or HGPS lines were blindly scored according to these criteria.

[5] = system: PGC-1α in normal and HGPS fibroblasts; experiment: PGC-1α expression (western blot, quantitative RT-PCR); assay type: cell-based, human; conditions: MB 100 nM, 8 weeks
HGPS cells [6] = experiment: Perinuclear heterochromatin (TEM) and HP1α immunostaining/western blotting; assay type: cell-based, human
Excerpt: as §1
Based on the results from FIG. 4 and FIGS. 5A-D, it was hypothesized that While MB is a universal mitochondrial-targeting antioxidant for both normal and HGPS cells, it has a specific role in HGPS cells by dislocating progerin away from the nuclear membrane. Previous studies reported that the anchorage of progerin to the nuclear membrane caused a loss of perinuclear heterochromatin in HGPS Cells. […] The rescue of heterochromatin loss by MB was further verified by immunostaining and western blotting using an antibody against heterochromatin protein 1alpha (HP1α).
as §3, with “min. The infiltration was performed in EtOH: EPON resin mixture at various ratio from 1:1, 1:2, 1:3 or complete EPON for one hour each ratio. The specimens were finally embedded in complete EPON at 60° C. over night.” for “min.”

HGPS fibroblasts = experiment: RNA-seq gene expression differential analysis; assay type: cell-based, human
Method: (§4) FIG. 6(A)-(B): Methylene Blue Rescues Gene Expression in HGPS Cells • (A) Pie chart showing the percentages and (B) the counted gene numbers of unaffected- and affected-genes in paired comparison among four groups (Normal+Vehicle vs. Progeria+Vehicle; Normal+Vehicle vs. Normal+MB; Progeria+Vehicle vs. Progeria+MB; and Normal+Vehicle+Progeria+MB).
(§5) Chromatin re-organization after MB treatment may induce gene expression changes. To examine the effects of MB on gene expression, RNA-seq was conducted in Mock and MB treated normal and HGPS cells, and gene expression differential analysis was performed using Tophat and Cufflinks suite of tools (see Methods). The RNA-seq data was obtained from two biological replicates; each included four groups of samples (Normal+Vehicle; Normal+MB; HGPS+Vehicle; and HGPS+MB). Pairwise comparisons were conducted (FIG. 6A-B). Consistent with previous studies, there are more than 20% differentially expressed genes (up/down: 7.79%/14.18%) in HGPS cells vs. normal fibroblasts (FIG. 6A-1).
(§6) For RNA sequencing experiments, the cell pellets of Normal or HGPS fibroblasts were collected from two individually cultured cells treated with vehicle or 100 nM MB from P15 or P16 to P20. Total RNA was extracted with Trizol (Life Sciences), followed by RNA precipitation with isopropanol, then purified using the RNeasy Mini Kit (Qiagen). The RNA quality was checked using Agilent 2100 Bioanalyzer showing good RIN numbers (8.90=9.70) in all eight samples. The RNA-seq sample preparation and sequencing were conducted according to the Illumina Truseq RNA sample preparation V2 guide by the IBBR Sequencing Core Facility at the University of Maryland. RNA-seq mapping and gene expression differential analysis was performed using Tophat and Cufflinks suite of tools as described previously by Trapnell et al.

normal fibroblasts = experiment: RNA-seq gene expression differential analysis; assay type: cell-based, human; conditions: Normal+Vehicle vs. Normal+MB, 100 nM
Method: as §4, §5, §6

skin fibroblast cells = experiment: Cell viability after H2O2 insults; assay type: cell-based, human; conditions: H2O2 1 mM, 60 minutes; low and high concentrations of MB
Method: MB or other antioxidant treated skin fibroblast cells were incubated with PBS containing H2O2 at 1 mM for 60 minutes. The cells were then washed three times using PBS and subjected to a cellular stress assay (as described above in 2). See the results obtained in FIG. 11.

Skin tissues = experiment: Skin hydration test (DPM9003); assay type: cell-based; conditions: MB for 2 weeks
Method: Skin tissues were treated with MB for 2 weeks, then skin hydration was detected by using DPM9003 with 4 mm probe. […] See the results obtained in FIG. 13. The noted small variations appear to have been due to pressure and leakage of medium.

[7] = system: EpiDerm Full Thickness (EFT-412); experiment: ECM gene expression analysis (quantitative PCR array); assay type: cell-based; conditions: MB for two weeks
Method: The expression of ECM genes were analyzed by quantitative PCR array on EpiDerm Full Thickness (EFT-412).
EFT-412 tissues were treated with MB for 2 weeks. […] Using RCP arrays for ECM remodeling genes. See results obtained in FIG. 14.

[8] = system: Epiderm Full Thickness (EFT-412) skin tissue; experiment: Histological analysis (H&E) of skin tissue; assay type: cell-based; conditions: MB at various concentration for two weeks
Excerpt: H&E staining on the MB treated skin tissues. […] See the results obtained in FIG. 15.

[9] = HGPS+Vehicle vs. HGPS+MB, 100 nM

## CN(C)c1ccc2nc3ccc(N(C)C)cc3[s+]c2c1.[Cl-] [MB, 3,7-bis(dimethylamino)-phenothiazin-5-ium chloride]
HGPS cells [1]
  senescence (SA-β-gal, p16 expression): younger than the mock-treated cells
Progerin in HGPS cells
  progerin distribution in nucleus: clear redistribution of progerin from the nuclear rim into the nucleoplasm
[2]
  ATP production: Significant improvements in ATP production
[3]; MB 100 nM, 8 weeks, vs mock
  ROS levels (MitoSOX, DCFDA): reductions in ROS levels
[3]; four weeks treatment, normal and HGPS fibroblasts, comparison with NAC, MitoQ, MitoTEMPO
  MitoSOX level (mitochondria specific superoxide): significant decrease of MitoSOX level
[4]
  number of severely defective mitochondria: significant reduction in the number of severely defective mitochondria
[5]
  expression of PGC-1α: stimulated the expression of PGC-1α
HGPS cells [6]; MB 100 nM, 6 weeks
  HP1α protein level: upregulation of HP1α protein level
  nuclear HP1α staining: increase in nuclear HP1α staining
HGPS cells [6]; MB 8 weeks
  perinuclear heterochromatin organization (TEM): readily apparent restoration of perinuclear heterochromatin organization
HGPS fibroblasts; [9]
  genes affected by MB, down: 0.45%
  genes affected by MB, up: 1.52%
HGPS fibroblasts; Normal+Vehicle vs. HGPS+MB, after one month of MB treatment
  number of differentially expressed genes: 1674
Normal fibroblasts
  genes with significant expression changes, down: 0.14%
  genes with significant expression changes, up: 0.19%
Skin fibroblast cells
  cell viability upon hydrogen peroxide treatment: significantly improved cell viability
Skin tissues
  skin hydration: did not increase skin hydration
[7]
  normal gene expression (3D skin tests): little or no effect on normal gene expression
[8]
  dermis / skin thickness: increase dermis thickness; also recorded: Increases Skin Thickness
